According to PubChem BioAssay (NCI):
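In this assay, cells in 96-well plates receive the compound at five concentrations for 48 hours. Endpoints are linearly interpolated between the surrounding concentrations. At the TGI there is no net growth.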

Columns and labels:
Assay in all cases: DTP human tumour cell line panel, 48 h
UACC-62 melanoma = system: UACC-62 melanoma
LOX IMVI melanoma = system: LOX IMVI melanoma
TK-10 renal = system: TK-10 renal
HL-60(TB) leukemia = system: HL-60(TB) leukemia
SNB-75 CNS = system: SNB-75 CNS
SK-MEL-5 melanoma = system: SK-MEL-5 melanoma
RXF 393 renal = system: RXF 393 renal
A498 renal = system: A498 renal
HCT-116 colon = system: HCT-116 colon
HOP-62 NSCLC = system: HOP-62 NSCLC
HT29 colon = system: HT29 colon
OVCAR-3 ovarian = system: OVCAR-3 ovarian
RPMI-8226 leukemia = system: RPMI-8226 leukemia
SK-MEL-2 melanoma = system: SK-MEL-2 melanoma
NCI-H23 lung = system: NCI-H23 lung
NCI-H460 lung = system: NCI-H460 lung
OVCAR-8 ovarian = system: OVCAR-8 ovarian
U251 CNS = system: U251 CNS
786-0 renal = system: 786-0 renal
HOP-18 NSCLC = system: HOP-18 NSCLC
SW-620 colon = system: SW-620 colon
OVCAR-4 ovarian = system: OVCAR-4 ovarian
SK-OV-3 ovarian = system: SK-OV-3 ovarian
SF-539 CNS = system: SF-539 CNS
MOLT-4 leukemia = system: MOLT-4 leukemia
DLD-1 colon = system: DLD-1 colon
HCC-2998 colon = system: HCC-2998 colon
A549 NSCLC = system: A549 NSCLC
SF-295 CNS = system: SF-295 CNS
RXF-631 renal = system: RXF-631 renal
ACHN renal = system: ACHN renal
K-562 leukemia = system: K-562 leukemia
IGROV1 ovarian = system: IGROV1 ovarian
NCI-H226 lung = system: NCI-H226 lung
UACC-257 melanoma = system: UACC-257 melanoma
KM20L2 colon = system: KM20L2 colon
KM12 colon = system: KM12 colon
UO-31 renal = system: UO-31 renal
SNB-19 CNS = system: SNB-19 CNS
SN12C renal = system: SN12C renal
MALME-3M melanoma = system: MALME-3M melanoma
CCRF-CEM leukemia = system: CCRF-CEM leukemia
XF 498 CNS = system: XF 498 CNS
M19-MEL melanoma = system: M19-MEL melanoma
DMS 114 small cell lung = system: DMS 114 small cell lung
EKVX NSCLC = system: EKVX NSCLC
SNB-78 CNS = system: SNB-78 CNS
COLO 205 colon = system: COLO 205 colon
LXFL 529 NSCLC = system: LXFL 529 NSCLC
HCT-15 colon = system: HCT-15 colon
OVCAR-5 ovarian = system: OVCAR-5 ovarian
CAKI-1 renal = system: CAKI-1 renal
M14 melanoma = system: M14 melanoma
HOP-92 NSCLC = system: HOP-92 NSCLC
DMS 273 small cell lung = system: DMS 273 small cell lung
NCI-H522 lung = system: NCI-H522 lung
SR leukemia = system: SR leukemia
SK-MEL-28 melanoma = system: SK-MEL-28 melanoma
SF-268 CNS = system: SF-268 CNS

Measured: TGI

CCc1c(OC(C)=O)c2c(NC3OC(COC(C)=O)C(OC(C)=O)C(OC(C)=O)C3OC(C)=O)nc(SC)nc2oc1=O (centres undefined)
not listed: DMS 273 small cell lung | NCI-H522 lung | SR leukemia | SK-MEL-28 melanoma | SF-268 CNS
> 100 µM: all other assays above

C=C1C(=O)O[C@@H]2C[C@@]3(C)[C@H](O)CCC(=C)[C@@H]3C[C@H]12
29.7 µM: EKVX NSCLC
12.1 µM: HT29 colon
11.7 µM: SW-620 colon
12.8 µM: LXFL 529 NSCLC
20.7 µM: LOX IMVI melanoma
23.2 µM: UO-31 renal | SN12C renal
16.5 µM: DLD-1 colon
25.7 µM: NCI-H226 lung
19 µM: UACC-62 melanoma
15.2 µM: SNB-75 CNS
26.2 µM: U251 CNS
18.5 µM: HCT-116 colon
26.7 µM: OVCAR-4 ovarian
23.3 µM: OVCAR-8 ovarian
9.74 µM: XF 498 CNS
27.4 µM: DMS 273 small cell lung
19.7 µM: NCI-H460 lung
19.6 µM: CAKI-1 renal
40 µM: SK-MEL-2 melanoma
32.9 µM: M19-MEL melanoma
14.4 µM: KM12 colon
46.9 µM: SNB-19 CNS
25 µM: TK-10 renal
7.09 µM: COLO 205 colon
21.6 µM: 786-0 renal
45.2 µM: IGROV1 ovarian
23.8 µM: HCC-2998 colon
35.1 µM: HCT-15 colon
18.2 µM: HOP-92 NSCLC
34 µM: HOP-62 NSCLC
27.8 µM: ACHN renal | SNB-78 CNS
20.3 µM: KM20L2 colon
14.1 µM: CCRF-CEM leukemia
52.6 µM: SK-OV-3 ovarian
23.6 µM: SF-539 CNS
20.2 µM: SK-MEL-28 melanoma
17.6 µM: NCI-H522 lung
28.1 µM: RXF-631 renal
34.9 µM: SF-268 CNS
13.4 µM: RPMI-8226 leukemia
10.2 µM: K-562 leukemia
27.2 µM: SF-295 CNS
16.8 µM: SK-MEL-5 melanoma
42.2 µM: DMS 114 small cell lung
25.5 µM: NCI-H23 lung
70.5 µM: A549 NSCLC
21.4 µM: OVCAR-3 ovarian
14 µM: SR leukemia
20.5 µM: OVCAR-5 ovarian
12.6 µM: MALME-3M melanoma

CCOC1c2nc3ccccc3nc2-c2ccccc2N1C(C)=O (centres undefined)
not listed: LOX IMVI melanoma | TK-10 renal | SK-MEL-5 melanoma | NCI-H226 lung | MALME-3M melanoma | OVCAR-5 ovarian | NCI-H522 lung | SF-268 CNS
> 100 µM: all other assays above

CS(=O)(=O)OCCN1CCN(C(=O)c2ccc(Cl)c3c(Nc4ccc(S(=O)(=O)N=C(N)N)cc4)c4ccccc4nc23)CC1
not listed: LOX IMVI melanoma | HOP-18 NSCLC | SW-620 colon | EKVX NSCLC | SNB-78 CNS | LXFL 529 NSCLC | NCI-H522 lung
> 100 µM: all other assays above
